Test [1] has as its target ATP-binding cassette sub-family C member 2 (Homo sapiens, UniProt Q92887). As to the kind of experiment: Inhibition of human MRP2 overexpressed in Sf9 cell membrane vesicles assessed as uptake of [3H]-estradiol-17beta-D-glucuronide in presence of ATP and GSH measured after 20 mins by membrane vesicle transport assay.
The target in test [2] is T1, ATP-binding cassette sub-family C member 4 (Homo sapiens, UniProt O15439).
T1 sequence (O15439 whole entry): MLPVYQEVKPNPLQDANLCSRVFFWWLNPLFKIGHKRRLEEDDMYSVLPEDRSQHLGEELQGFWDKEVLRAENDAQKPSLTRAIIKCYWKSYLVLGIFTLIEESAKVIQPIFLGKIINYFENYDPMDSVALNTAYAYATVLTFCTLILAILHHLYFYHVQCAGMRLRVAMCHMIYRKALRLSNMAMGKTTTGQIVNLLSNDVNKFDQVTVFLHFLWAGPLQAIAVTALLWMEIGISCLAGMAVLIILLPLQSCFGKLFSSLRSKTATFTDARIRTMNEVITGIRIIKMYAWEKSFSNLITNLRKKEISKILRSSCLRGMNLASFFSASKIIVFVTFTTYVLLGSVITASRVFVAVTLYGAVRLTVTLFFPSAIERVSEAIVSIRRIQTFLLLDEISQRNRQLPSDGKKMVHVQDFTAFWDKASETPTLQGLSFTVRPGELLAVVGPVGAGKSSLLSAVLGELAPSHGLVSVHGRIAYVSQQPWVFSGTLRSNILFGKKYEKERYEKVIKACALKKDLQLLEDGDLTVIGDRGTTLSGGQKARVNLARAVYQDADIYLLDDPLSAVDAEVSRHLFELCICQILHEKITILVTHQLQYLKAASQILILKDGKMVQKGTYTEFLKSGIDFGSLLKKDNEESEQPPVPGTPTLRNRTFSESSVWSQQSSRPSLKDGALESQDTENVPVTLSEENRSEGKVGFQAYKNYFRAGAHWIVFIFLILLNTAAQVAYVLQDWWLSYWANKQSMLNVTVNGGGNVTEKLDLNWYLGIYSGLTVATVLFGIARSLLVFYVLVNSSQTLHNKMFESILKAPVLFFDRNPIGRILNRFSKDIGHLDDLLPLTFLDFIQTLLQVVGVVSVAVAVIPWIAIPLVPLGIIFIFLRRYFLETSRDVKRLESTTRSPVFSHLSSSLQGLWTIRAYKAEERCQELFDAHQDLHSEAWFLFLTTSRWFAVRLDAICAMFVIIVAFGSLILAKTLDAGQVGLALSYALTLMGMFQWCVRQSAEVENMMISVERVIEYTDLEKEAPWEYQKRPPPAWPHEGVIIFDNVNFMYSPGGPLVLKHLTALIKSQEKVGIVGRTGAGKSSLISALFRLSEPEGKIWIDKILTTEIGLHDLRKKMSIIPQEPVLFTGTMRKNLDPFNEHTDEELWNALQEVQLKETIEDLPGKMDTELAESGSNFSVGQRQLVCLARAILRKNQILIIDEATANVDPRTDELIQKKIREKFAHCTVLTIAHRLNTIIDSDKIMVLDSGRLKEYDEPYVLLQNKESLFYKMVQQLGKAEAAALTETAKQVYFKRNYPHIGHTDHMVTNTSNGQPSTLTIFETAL
Put plainly: Inhibition of human MRP4 overexpressed in Sf9 cell membrane vesicles assessed as uptake of [3H]-estradiol-17beta-D-glucuronide in presence of ATP and GSH measured after 20 mins by membrane vesicle transport assay. It counts as ADME, cell-based.

Test [3] deals with ATP-binding cassette sub-family C member 3 (Homo sapiens, UniProt O15438). As to the kind of experiment: Inhibition of human MRP3 overexpressed in Sf9 insect cell membrane vesicles assessed as uptake of [3H]-estradiol-17beta-D-glucuronide in presence of ATP and GSH measured after 10 mins by membrane vesicle transport assay. In kind it is ADME, cell-based.

pIC50: −log10 of the molar value. Structures can show the parent of a compound that is named as a salt.

Sequence of ATP-binding cassette sub-family C member 3 (O15438 whole entry): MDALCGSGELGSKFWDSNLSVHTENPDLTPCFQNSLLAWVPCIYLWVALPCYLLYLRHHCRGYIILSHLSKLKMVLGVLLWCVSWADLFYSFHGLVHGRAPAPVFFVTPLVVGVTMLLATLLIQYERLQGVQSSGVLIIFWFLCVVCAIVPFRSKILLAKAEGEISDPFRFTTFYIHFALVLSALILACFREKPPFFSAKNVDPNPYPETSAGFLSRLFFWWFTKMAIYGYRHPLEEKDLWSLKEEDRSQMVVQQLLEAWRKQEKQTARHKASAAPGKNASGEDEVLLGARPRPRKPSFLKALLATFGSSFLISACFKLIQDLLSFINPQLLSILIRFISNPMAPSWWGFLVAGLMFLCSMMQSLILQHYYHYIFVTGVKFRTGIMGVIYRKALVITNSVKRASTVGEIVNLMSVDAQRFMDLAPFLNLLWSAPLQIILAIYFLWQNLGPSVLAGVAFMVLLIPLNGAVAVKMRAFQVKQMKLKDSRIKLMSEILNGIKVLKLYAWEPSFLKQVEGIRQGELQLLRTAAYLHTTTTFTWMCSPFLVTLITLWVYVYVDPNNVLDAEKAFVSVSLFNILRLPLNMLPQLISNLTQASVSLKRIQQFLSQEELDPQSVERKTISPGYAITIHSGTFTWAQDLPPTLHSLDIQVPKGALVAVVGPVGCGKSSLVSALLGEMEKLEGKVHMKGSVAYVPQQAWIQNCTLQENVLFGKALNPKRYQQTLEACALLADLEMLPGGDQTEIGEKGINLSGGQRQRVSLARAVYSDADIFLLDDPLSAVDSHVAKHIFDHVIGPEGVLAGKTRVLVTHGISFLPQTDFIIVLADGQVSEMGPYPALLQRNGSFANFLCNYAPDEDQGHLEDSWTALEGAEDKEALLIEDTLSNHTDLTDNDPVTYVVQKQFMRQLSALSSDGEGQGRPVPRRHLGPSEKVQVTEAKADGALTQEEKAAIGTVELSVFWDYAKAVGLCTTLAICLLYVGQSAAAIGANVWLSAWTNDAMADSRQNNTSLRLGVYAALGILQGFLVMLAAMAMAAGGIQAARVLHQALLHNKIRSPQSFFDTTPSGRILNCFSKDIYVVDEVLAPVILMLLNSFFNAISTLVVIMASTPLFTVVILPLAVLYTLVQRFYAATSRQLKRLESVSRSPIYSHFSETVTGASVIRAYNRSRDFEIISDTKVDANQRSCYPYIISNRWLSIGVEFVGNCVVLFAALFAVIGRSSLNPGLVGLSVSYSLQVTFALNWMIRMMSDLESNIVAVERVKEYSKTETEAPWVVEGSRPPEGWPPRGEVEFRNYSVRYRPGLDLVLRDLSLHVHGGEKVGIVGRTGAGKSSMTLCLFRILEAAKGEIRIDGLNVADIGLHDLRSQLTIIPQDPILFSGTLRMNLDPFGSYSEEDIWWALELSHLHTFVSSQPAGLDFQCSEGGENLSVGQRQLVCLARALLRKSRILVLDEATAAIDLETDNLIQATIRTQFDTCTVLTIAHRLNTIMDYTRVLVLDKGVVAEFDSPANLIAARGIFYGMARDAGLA
Sequence of ATP-binding cassette sub-family C member 2 (Q92887 whole entry): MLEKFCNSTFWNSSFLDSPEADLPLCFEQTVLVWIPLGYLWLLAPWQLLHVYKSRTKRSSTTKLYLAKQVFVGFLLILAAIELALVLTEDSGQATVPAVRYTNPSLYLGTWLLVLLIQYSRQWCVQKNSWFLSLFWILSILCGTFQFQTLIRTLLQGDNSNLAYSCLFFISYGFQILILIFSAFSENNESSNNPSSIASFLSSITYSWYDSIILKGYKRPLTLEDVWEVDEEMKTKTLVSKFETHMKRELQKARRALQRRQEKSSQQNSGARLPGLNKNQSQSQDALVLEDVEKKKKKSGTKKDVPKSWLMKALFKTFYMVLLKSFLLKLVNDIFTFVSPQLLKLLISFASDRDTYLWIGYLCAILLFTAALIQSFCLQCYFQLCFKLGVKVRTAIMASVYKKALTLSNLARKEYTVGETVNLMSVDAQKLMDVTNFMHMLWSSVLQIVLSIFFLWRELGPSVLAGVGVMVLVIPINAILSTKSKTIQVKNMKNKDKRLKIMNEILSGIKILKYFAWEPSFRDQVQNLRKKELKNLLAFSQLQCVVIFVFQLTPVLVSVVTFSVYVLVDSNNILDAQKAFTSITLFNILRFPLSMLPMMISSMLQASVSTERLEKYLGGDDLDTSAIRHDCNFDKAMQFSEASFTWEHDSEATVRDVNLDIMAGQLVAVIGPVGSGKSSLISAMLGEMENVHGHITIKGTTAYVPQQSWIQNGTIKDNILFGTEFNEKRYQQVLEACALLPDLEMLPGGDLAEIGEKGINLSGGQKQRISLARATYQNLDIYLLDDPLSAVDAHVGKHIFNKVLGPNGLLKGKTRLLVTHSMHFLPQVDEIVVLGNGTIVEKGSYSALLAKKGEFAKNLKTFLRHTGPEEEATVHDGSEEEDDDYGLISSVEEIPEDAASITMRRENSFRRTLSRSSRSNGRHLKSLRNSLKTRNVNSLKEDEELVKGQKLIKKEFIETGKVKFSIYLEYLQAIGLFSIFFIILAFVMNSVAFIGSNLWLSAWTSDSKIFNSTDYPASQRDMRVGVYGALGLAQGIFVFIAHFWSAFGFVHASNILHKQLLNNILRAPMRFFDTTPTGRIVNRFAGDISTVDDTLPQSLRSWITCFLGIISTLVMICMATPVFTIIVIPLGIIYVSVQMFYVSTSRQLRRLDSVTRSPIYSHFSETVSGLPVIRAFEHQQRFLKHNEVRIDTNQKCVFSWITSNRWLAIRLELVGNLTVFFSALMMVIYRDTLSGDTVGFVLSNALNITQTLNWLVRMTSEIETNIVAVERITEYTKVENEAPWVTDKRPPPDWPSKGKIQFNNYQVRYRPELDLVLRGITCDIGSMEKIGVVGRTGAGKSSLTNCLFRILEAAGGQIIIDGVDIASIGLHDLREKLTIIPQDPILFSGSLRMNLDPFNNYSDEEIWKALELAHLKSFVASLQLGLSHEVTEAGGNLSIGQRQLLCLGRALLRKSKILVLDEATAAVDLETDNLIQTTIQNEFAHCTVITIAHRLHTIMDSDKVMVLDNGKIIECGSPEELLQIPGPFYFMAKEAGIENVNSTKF

As for `CC[C@H]1OC(=O)[C@H](C)[C@@H](O[C@H]2C[C@@](C)(OC)[C@@H](O)[C@H](C)O2)[C@H](C)[C@@H](O[C@@H]2O[C@H](C)C[C@H](N(C)C)[C@H]2O)[C@](C)(O)C[C@@H](C)C(=O)[C@H](C)[C@@H](O)[C@]1(C)O`, the figures for the negative logarithm of the IC50 (pIC50) in test [1], in test [2] and in test [3] were below 3.88, 4.17 and below 3.88, respectively.
For the compound `CCN(CC)CCNC(=O)c1c(C)[nH]c(/C=C2\C(=O)Nc3ccc(F)cc32)c1C`, the negative-log IC50 (pIC50) in test [1], in test [2] and in test [3] was below 3.88 in each case.
`C#C[C@@]1(O)CC[C@H]2[C@@H]3CCC4=CC(=O)CC[C@@H]4[C@H]3CC[C@@]21C`: the pIC50 in test [1], in test [2] and in test [3] was below 3.88 in each case.
Turning to `COc1ccc(CCN(C)CCCC(C#N)(c2ccc(OC)c(OC)c2)C(C)C)cc1OC` (stereo unspecified), the negative logarithm of the IC50 (pIC50) in test [1] and in test [3] was below 3.88 each time.
On to `CCN(CC)C(=S)SSC(=S)N(CC)CC`, for which the pIC50 in test [1], in test [2] and in test [3] was below 3.88 each time.
For the compound `CN1[C@@H]2CC[C@H]1C[C@@H](OC(=O)C(CO)c1ccccc1)C2` (mixture of isomers) [ATROPINE], the pIC50 in test [1], in test [2] and in test [3] was below 3.88 in each case.
Consider `CC(=O)Nc1nnc(S(N)(=O)=O)s1` [ACETAZOLAMIDE], for which the negative logarithm of the IC50 (pIC50) in test [1], in test [2] and in test [3] was below 3.88 throughout.
For `CC(C)(C)NCC(O)c1ccc(O)c(CO)c1` (stereo unspecified) [ALBUTEROL], the pIC50 in test [1], in test [2] and in test [3] was below 3.88 in each case.
In the case of `CCCCC[C@H](O)/C=C/[C@H]1[C@H](O)CC(=O)[C@@H]1CCCCCCC(=O)O` [ALPROSTADIL], the values for the negative logarithm of the IC50 (pIC50) in test [1], in test [2] and in test [3] were below 3.88, 5.64 and 4.57, respectively.
`O=C1CCc2ccc(OCCCCN3CCN(c4cccc(Cl)c4Cl)CC3)cc2N1` [ARIPIPRAZOLE]: the pIC50 in test [1], in test [2] and in test [3] was below 3.88 throughout.
Consider `Cn1cnc([N+](=O)[O-])c1Sc1ncnc2nc[nH]c12` [AZATHIOPRINE], for which the pIC50 in test [1], in test [2] and in test [3] was below 3.88 throughout.
Turning to `C=C(c1ccc(C(=O)O)cc1)c1cc2c(cc1C)C(C)(C)CCC2(C)C` [BEXAROTENE], the negative logarithm of the IC50 (pIC50) in test [1], in test [2] and in test [3] was below 3.88 throughout.
On to `CN(C)CCC(c1ccc(Br)cc1)c1ccccn1` (stereo unspecified) [BROMPHENIRAMINE MALEATE], for which the negative-log IC50 (pIC50) in test [1], in test [2] and in test [3] was below 3.88 in each case.
Consider `CC1=C(C(=O)O)N2C(=O)[C@@H](NC(=O)[C@H](N)c3ccc(O)cc3)[C@H]2SC1` [CEFADROXIL], for which the negative-log IC50 (pIC50) in test [1], in test [2] and in test [3] was below 3.88 each time.
As to `CO[C@@]1(NC(=O)C2SC(=C(C(N)=O)C(=O)O)S2)C(=O)N2C(C(=O)O)=C(CSc3nnnn3C)CS[C@@H]21` (stereo partly specified) [CEFOTETAN], in test [3], the pIC50 (usually −log10 of the IC50, conventionally taken in molar units) was 4.10.
In the case of `O=C(N[C@H](CO)[C@H](O)c1ccc([N+](=O)[O-])cc1)C(Cl)Cl` [CHLORAMPHENICOL], the pIC50 in test [2] and in test [3] was below 3.88 in each case.
In the case of `CCN(CC)CCCC(C)Nc1ccnc2cc(Cl)ccc12` (stereo unspecified) [CHLOROQUINE], the negative logarithm of the IC50 (pIC50) in test [1] was below 3.88; in test [2] it was 3.98; in test [3], below 3.88.
Regarding `CC1(COc2ccc(CC3SC(=O)NC3=O)cc2)CCCCC1` (stereo unspecified) [CIGLITAZONE], the negative-log IC50 (pIC50) in test [1], in test [2] and in test [3] was below 3.88 each time.
Take `CN/C(=N/CCSCc1nc[nH]c1C)NC#N` [CIMETIDINE]: the pIC50 in test [1], in test [2] and in test [3] was below 3.88 in each case.
`C(=C\c1ccccc1)/CN1CCN(C(c2ccccc2)c2ccccc2)CC1` [CINNARIZINE]: the pIC50 in test [1], in test [2] and in test [3] was below 3.88 each time.
Turning to `O=C(O)c1cn(C2CC2)c2cc(N3CCNCC3)c(F)cc2c1=O` [CIPROFLOXACIN], the negative-log IC50 (pIC50) in test [1], in test [2] and in test [3] was below 3.88 in each case.
Turning to `CN(C)CCCN1c2ccccc2CCc2ccc(Cl)cc21` [CLOMIPRAMINE], the negative logarithm of the IC50 (pIC50) in test [1], in test [2] and in test [3] was below 3.88 throughout.
`COc1cc2c(c(OC)c1OC)-c1ccc(OC)c(=O)cc1[C@@H](NC(C)=O)CC2` [COLCHICINE]: the negative logarithm of the IC50 (pIC50) in test [1], in test [2] and in test [3] was below 3.88 in each case.
With `Nc1ccn([C@@H]2O[C@H](CO)[C@@H](O)[C@@H]2O)c(=O)n1` [CYTARABINE], the pIC50 in test [1], in test [2] and in test [3] was below 3.88 throughout.
As to `Nc1ccc(S(=O)(=O)c2ccc(N)cc2)cc1` [DAPSONE], the pIC50 in test [1], in test [2] and in test [3] was below 3.88 each time.
`Clc1ccc2c(c1)CCc1cccnc1C2=C1CCNCC1` [DESLORATADINE]: the pIC50 in test [1], in test [2] and in test [3] was below 3.88 in each case.
On to `CN(C)CC[C@@H](c1ccc(Br)cc1)c1ccccn1` [DEXBROMPHENIRAMINE MALEATE], for which the pIC50 in test [1], in test [2] and in test [3] was below 3.88 in each case.
Turning to `O=c1[nH]cnc2c1ncn2[C@H]1CC[C@@H](CO)O1` [DIDANOSINE], the pIC50 in test [1], in test [2] and in test [3] was below 3.88 throughout.
With `COc1ccc([C@@H]2Sc3ccccc3N(CCN(C)C)C(=O)[C@@H]2OC(C)=O)cc1` [DILTIAZEM], the pIC50 in test [1], in test [2] and in test [3] was below 3.88 each time.
As to `C[C@@H](O)[C@H]1C(=O)N2C(C(=O)O)=C(S[C@@H]3CN[C@H](CNS(N)(=O)=O)C3)[C@H](C)[C@H]12` [DORIPENEM], the negative-log IC50 (pIC50) in test [1], in test [2] and in test [3] was below 3.88 throughout.
As for `CN(C)CCC=C1c2ccccc2COc2ccccc21` [DOXEPIN], the pIC50 in test [1], in test [2] and in test [3] was below 3.88 throughout.
`C[C@H](N[C@@H](CCc1ccccc1)C(=O)O)C(=O)N1CCC[C@H]1C(=O)O` [ENALAPRILAT ANHYDROUS]: the pIC50 in test [1], in test [2] and in test [3] was below 3.88 throughout.
Turning to `CC[C@H]1OC(=O)[C@H](C)[C@@H](O[C@H]2C[C@@](C)(OC)[C@@H](O)[C@H](C)O2)[C@H](C)[C@@H](O[C@@H]2O[C@H](C)C[C@H](N(C)C)[C@H]2O)[C@](C)(O)C[C@@H](C)C(=O)[C@H](C)[C@@H](O)[C@]1(C)O` [ERYTHROMYCIN], the negative logarithm of the IC50 (pIC50) in test [1], in test [2] and in test [3] was below 3.88 each time.
For `C[C@]12CC[C@@H]3c4ccc(O)cc4CC[C@H]3[C@@H]1CC[C@@H]2O` [ESTRADIOL], the negative-log IC50 (pIC50) in test [2] and in test [3] was below 3.88 throughout.
Regarding `C=C(CC)C(=O)c1ccc(OCC(=O)O)c(Cl)c1Cl` [ETHACRYNIC ACID], the figures for the negative logarithm of the IC50 (pIC50) in test [1], in test [2] and in test [3] were 5.41, below 3.88 and 4.02, respectively.
As to `O=C(CCCN1CCC(O)(c2ccc(Cl)cc2)CC1)c1ccc(F)cc1` [HALOPERIDOL], the negative-log IC50 (pIC50) in test [2] and in test [3] was below 3.88 each time.
Regarding `O=C(O)CCc1nc(-c2ccccc2)c(-c2ccccc2)o1` [OXAPROZIN], the pIC50 in test [1] and in test [3] was below 3.88 throughout.
For the compound `O=C(O)c1cc(/N=N/c2ccc(S(=O)(=O)Nc3ccccn3)cc2)ccc1O` [SULFASALAZINE], the pIC50 in test [2] was 5.82; in test [3] it was 4.84.

(Values after ChEMBL document CHEMBL4028801, “A multifactorial approach to hepatobiliary transporter assessment enables improved therapeutic compound development” (Toxicol Sci, 2013).)
